Test results reported in patent US10494364B2, “Cathepsin K inhibitors and application thereof” (SUNSHINE LAKE PHARMA CO., LTD., priority 2015, dated 2019).

Assays:
Assay type in all cases: biochemical
human cathepsin K = biological target: T1, human cathepsin K (Homo sapiens, UniProt P43235); test: Assay of cathepsin K inhibitory activity in vitro; conditions: IC50 against human cathepsin K; substrate Z-Phe-Arg-AMC 10 μM; 25° C.; read-out: Cat-K
T1 sequence (P43235 115-329): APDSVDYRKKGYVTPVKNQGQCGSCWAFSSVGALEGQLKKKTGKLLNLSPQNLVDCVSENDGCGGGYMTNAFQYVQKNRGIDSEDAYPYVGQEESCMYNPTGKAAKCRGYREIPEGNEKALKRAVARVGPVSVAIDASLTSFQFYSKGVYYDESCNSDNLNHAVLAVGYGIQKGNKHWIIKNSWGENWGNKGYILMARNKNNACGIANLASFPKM
Procedure: Assay Method of Cathepsin K Inhibitory Activity In Vitro
Using 45000-fold diluted cathepsin K solution and 10 μM Z-Phe-Arg-AMC as substrate, the test compound and cathepsin K solution were incubated at 25° C. for 15 min in a 15 μL reaction system according to the optimized experimental condition.

human cathepsin L = human cathepsin L (Homo sapiens, UniProt P07711); test: Assay of cathepsin L inhibitory activity in vitro; conditions: IC50 against human cathepsin L; substrate Z-Phe-Arg-AMC 10 μM; 25° C.; read-out: Cat-L
Procedure: Assay Method of Cathepsin L Inhibitory Activity In Vitro
0.01 ng/μL was the final concentration of Cathepsin L in the enzyme reaction, and Z-Phe-Arg-AMC with the final concentration of 10 μM was added into the reaction system as substrate, in the reaction system the test compound and enzyme had been incubated at 25° C. for 15 min.

human cathepsin B = human cathepsin B (Homo sapiens, UniProt P07858); test: Assay of cathepsin B inhibitory activity in vitro; conditions: IC50 against human cathepsin B; substrate Z-Phe-Arg-AMC 10 μM; 25° C.; read-out: Cat-B
Procedure: Assay Method of Cathepsin B Inhibitory Activity In Vitro
0.01 ng/μL was the final concentration of Cathepsin B in the enzyme reaction, and Z-Phe-Arg-AMC with the final concentration of 10 μM was added into the reaction system as substrate, in the reaction system the test compound and enzyme had been incubated at 25° C. for 15 min.

human cathepsin S = human cathepsin S (Homo sapiens, UniProt P25774); test: Assay of cathepsin S inhibitory activity in vitro; conditions: IC50 against human cathepsin S; substrate Z-VVR-AMC 20 μM; 25° C.; read-out: Cat-S
Procedure: Assay Method of Cathepsin S Inhibitory Activity In Vitro
0.25 ng/L was the final concentration of Cathepsin S in the enzyme reaction, and Z-VVR-AMC with the final concentration of 20 μM was added into the reaction system as substrate, in the reaction system the test compound and enzyme had been incubated at 25° C. for 15 min.

human cathepsin L, sequence (P07711 114-333): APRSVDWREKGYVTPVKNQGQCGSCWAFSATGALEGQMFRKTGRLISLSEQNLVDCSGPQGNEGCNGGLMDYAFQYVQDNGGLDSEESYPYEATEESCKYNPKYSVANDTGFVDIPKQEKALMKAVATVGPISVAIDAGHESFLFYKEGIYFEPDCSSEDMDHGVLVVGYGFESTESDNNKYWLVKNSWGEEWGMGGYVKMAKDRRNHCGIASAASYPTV
human cathepsin S, sequence (P25774 115-331): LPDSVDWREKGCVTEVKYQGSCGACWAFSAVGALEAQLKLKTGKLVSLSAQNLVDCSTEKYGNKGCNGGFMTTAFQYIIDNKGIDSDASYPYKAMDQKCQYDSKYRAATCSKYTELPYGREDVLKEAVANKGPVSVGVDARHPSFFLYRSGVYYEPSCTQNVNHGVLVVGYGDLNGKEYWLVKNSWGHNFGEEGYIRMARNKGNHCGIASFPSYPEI

## CS(=O)(=O)c1ccc(-c2ccc3cc(C(=O)NC4(C(=O)NC5(C#N)CC5)CCC(F)(F)CC4)oc3c2)cc1 [Example 2, N-(1-((1-cyanocyclopropyl)carbamoyl)-4,4-difluorocyclohexyl)-6-(4-(methylsulfonyl)phenyl)benzofuran-2-carboxamide]
Human cathepsin K
  IC50: 1.37 nM
Human cathepsin L
  IC50: > 10000 nM
Human cathepsin B
  IC50: 880 nM
Human cathepsin S
  IC50: 4000 nM

## N#CC1(NC(=O)C2(NC(=O)c3cc4ccc(-c5ccc(OC6COC6)cc5)cc4o3)CCC(F)(F)CC2)CC1 [Example 19, N-(1-((1-cyanocyclopropyl)carbamoyl)-4,4-difluorocyclohexyl)-6-(4-(oxetan-3-yloxy)phenyl)benzofuran-2-carboxamide]
Human cathepsin K
  IC50: 2 nM
Human cathepsin L
  IC50: > 10000 nM
Human cathepsin B
  IC50: > 10000 nM
Human cathepsin S
  IC50: 2300 nM

## N#CC1(NC(=O)C2(NC(=O)c3cc4ccc(-c5csc(N6CCOC6=O)n5)cc4o3)CCCCC2)CC1 [Example 68]
Human cathepsin K
  IC50: 0.79 nM
Human cathepsin L
  IC50: > 10000 nM
Human cathepsin B
  IC50: 360 nM
Human cathepsin S
  IC50: 4080 nM

## N#CC1(NC(=O)C2(NC(=O)c3cc4ccc(-c5ccc(C6(F)COC6)cc5)cc4o3)CCCCC2)CC1 [Example 73]
Human cathepsin K
  IC50: 3.04 nM
Human cathepsin L
  IC50: > 10000 nM
Human cathepsin B
  IC50: 1120 nM
Human cathepsin S
  IC50: > 10000 nM

## N#CC1(NC(=O)C2(NC(=O)c3cc4ccc(-c5ccc(C6(N)COC6)cc5)cc4o3)CCCCC2)CC1 [Example 1, 6-(4-(3-aminooxetan-3-yl)phenyl)-N-(1-((1-cyanocyclopropyl)carbamoyl)cyclohexyl)benzofuran-2-carboxamide]
Human cathepsin K
  IC50: 0.19 nM
Human cathepsin L
  IC50: 1500 nM
Human cathepsin B
  IC50: 22 nM
Human cathepsin S
  IC50: 1800 nM

## N#CC1(NC(=O)C2(NC(=O)c3cc4ccc(-c5csc(N6CCS(=O)(=O)CC6)n5)cc4o3)CCCCC2)CC1 [Example 67]
Human cathepsin K
  IC50: 0.64 nM
Human cathepsin L
  IC50: > 10000 nM
Human cathepsin B
  IC50: 540 nM
Human cathepsin S
  IC50: 990 nM

## N#CC1(NC(=O)C2(NC(=O)c3cc4ccc(-c5ccc(C6(O)CCOCC6)cc5)cc4o3)CCC(F)(F)CC2)CC1 [Example 22, N-(1-((1-cyanocyclopropyl)carbamoyl)-4,4-difluorocyclohexyl)-6-(4-(4-hydroxytetrahydro-2H-pyran-4-yl)phenyl)benzofuran-2-carboxamide]
Human cathepsin K
  IC50: 1.8 nM
Human cathepsin L
  IC50: > 10000 nM
Human cathepsin B
  IC50: 3100 nM
Human cathepsin S
  IC50: 1800 nM

## COc1cc(-c2ccc3cc(C(=O)NC4(C(=O)NC5(C#N)CC5)CCC(F)(F)CC4)oc3c2)ccc1OCS(C)(=O)=O [Example 101]
Human cathepsin K
  IC50: 0.88 nM

## CS(=O)(=O)Nc1ccc(-c2ccc3cc(C(=O)NC4(C(=O)NC5(C#N)CC5)CCC(F)(F)CC4)oc3c2)cc1 [Example 96]
Human cathepsin K
  IC50: 0.53 nM
Human cathepsin L
  IC50: > 10000 nM
Human cathepsin B
  IC50: 711 nM
Human cathepsin S
  IC50: 2150 nM

## N#CC1(NC(=O)C2(NC(=O)c3cc4ccc(-c5ccc(C6(O)CCC6)cc5)cc4o3)CCCCC2)CC1 [Example 9, N-(1-((1-cyanocyclopropyl)carbamoyl)cyclohexyl)-6-(4-(1-hydroxycyclobutyl)phenyl)benzofuran-2-carboxamide]
Human cathepsin K
  IC50: 2.7 nM
Human cathepsin L
  IC50: > 10000 nM
Human cathepsin B
  IC50: 410 nM
Human cathepsin S
  IC50: 3500 nM

## N#CC1(NC(=O)C2(NC(=O)c3cc4ccc(-c5ccc6c(c5)OCCO6)cc4o3)CCC(F)(F)CC2)CC1 [Example 33, N-(1-((1-cyanocyclopropyl)carbamoyl)-4,4-difluorocyclohexyl)-6-(2,3-dihydrobenzo[b][1,4]dioxin-6-yl)benzofuran-2-carboxamide]
Human cathepsin K
  IC50: 2.95 nM
Human cathepsin L
  IC50: > 10000 nM
Human cathepsin B
  IC50: 2300 nM
Human cathepsin S
  IC50: > 10000 nM

## N#CC1(NC(=O)C2(NC(=O)c3cc4ccc(-c5ccc(C6(O)COC6)nc5)cc4o3)CCCCC2)CC1 [Example 77]
Human cathepsin K
  IC50: 0.67 nM
Human cathepsin L
  IC50: ≥ 10000 nM
Human cathepsin B
  IC50: 178 nM
Human cathepsin S
  IC50: 1050 nM

## CS(=O)(=O)c1ccc(-c2ccc3cc(C(=O)NC4(C(=O)NC5(C#N)CC5)CCCCC4)oc3n2)cc1 [Example 82]
Human cathepsin K
  IC50: 2.7 nM
Human cathepsin L
  IC50: > 10000 nM
Human cathepsin B
  IC50: 200 nM
Human cathepsin S
  IC50: 1500 nM

## N#CC1(NC(=O)C2(NC(=O)c3cc4ccc(-c5ccc(N6CCNC6=O)cc5)cc4o3)CCC(F)(F)CC2)CC1 [Example 88]
Human cathepsin K
  IC50: 5.4 nM
Human cathepsin L
  IC50: > 10000 nM
Human cathepsin B
  IC50: 800 nM
Human cathepsin S
  IC50: 2900 nM

## CS(=O)(=O)c1cccc(-c2ccc3cc(C(=O)NC4(C(=O)NC5(C#N)CC5)CCCCC4)oc3c2)c1 [Example 64]
Human cathepsin K
  IC50: 0.88 nM
Human cathepsin L
  IC50: > 10000 nM
Human cathepsin B
  IC50: 373 nM
Human cathepsin S
  IC50: 637 nM

## N#CC1(NC(=O)C2(NC(=O)c3cc4ccc(-c5ccc(C6(O)COC6)cc5)cc4o3)CCCCCC2)CC1 [Example 79]
Human cathepsin K
  IC50: 0.72 nM
Human cathepsin L
  IC50: 7100 nM
Human cathepsin B
  IC50: 330 nM
Human cathepsin S
  IC50: 740 nM

## CC1(COc2ccc(-c3ccc4cc(C(=O)NC5(C(=O)NC6(C#N)CC6)CCC(F)(F)CC5)oc4c3)cc2)COC1 [Example 93]
Human cathepsin K
  IC50: 2.96 nM
Human cathepsin L
  IC50: > 10000 nM
Human cathepsin B
  IC50: 4300 nM
Human cathepsin S
  IC50: > 10000 nM

## N#CC1(NC(=O)C2(NC(=O)c3cc4ccc(-c5ccc(C6(O)CCOCC6)cc5)cc4o3)CCCCC2)CC1 [Example 75]
Human cathepsin K
  IC50: 1.83 nM
Human cathepsin L
  IC50: > 10000 nM
Human cathepsin B
  IC50: 490 nM
Human cathepsin S
  IC50: 4100 nM

## COc1cc(-c2ccc3cc(C(=O)NC4(C(=O)NC5(C#N)CC5)CCC(F)(F)CC4)oc3c2)ccc1-n1cncn1 [Example 39, N-(1-((1-cyanocyclopropyl)carbamoyl)-4,4-difluorocyclohexyl)-6-(3-methoxy-4-(1H-1,2,4-triazol-1-yl)phenyl)benzofuran-2-carboxamide]
Human cathepsin K
  IC50: 0.31 nM
Human cathepsin L
  IC50: > 10000 nM
Human cathepsin B
  IC50: 409 nM
Human cathepsin S
  IC50: > 10000 nM

## COc1cc(-c2ccc3cc(C(=O)NC4(C(=O)NC5(C#N)CC5)CCC(F)(F)CC4)oc3c2)ccc1S(C)(=O)=O [Example 97]
Human cathepsin K
  IC50: 1.37 nM
Human cathepsin L
  IC50: > 10000 nM
Human cathepsin B
  IC50: 355 nM
Human cathepsin S
  IC50: 2290 nM

## N#CC1(NC(=O)C2(NC(=O)c3cc4ccc(-c5ccc(N6CCOCC6=O)cc5)cc4o3)CCC(F)(F)CC2)CC1 [Example 28, N-(1-((1-cyanocyclopropyl)carbamoyl)-4,4-difluorocyclohexyl)-6-(4-(3-oxomorpholino)phenyl)benzofuran-2-carboxamide]
Human cathepsin K
  IC50: 1.2 nM
Human cathepsin L
  IC50: > 10000 nM
Human cathepsin B
  IC50: 2200 nM
Human cathepsin S
  IC50: 1900 nM

## N#CC1(NC(=O)C2(NC(=O)c3cc4ccc(-c5ccc(C6(N)COC6)cc5)cc4o3)CCC(F)(F)CC2)CC1 [Example 14, 6-(4-(3-aminooxetan-3-yl)phenyl)-N-(1-((1-cyanocyclopropyl)carbamoyl)-4,4-difluorocyclohexyl)benzofuran-2-carboxamide]
Human cathepsin K
  IC50: 0.38 nM
Human cathepsin L
  IC50: 3100 nM
Human cathepsin B
  IC50: 86 nM
Human cathepsin S
  IC50: 260 nM

## N#CC1(NC(=O)C2(NC(=O)c3cc4ccc(-c5ccc6c(c5)OCO6)cc4o3)CCC(F)(F)CC2)CC1 [Example 91]
Human cathepsin K
  IC50: 1.3 nM
Human cathepsin L
  IC50: > 10000 nM
Human cathepsin B
  IC50: 2500 nM
Human cathepsin S
  IC50: > 10000 nM

## COc1cc(-c2ccc3cc(C(=O)NC4(C(=O)NC5(C#N)CC5)CCC(F)(F)CC4)oc3c2)ccc1CS(C)(=O)=O [Example 100]
Human cathepsin K
  IC50: 0.56 nM

## CS(=O)(=O)COc1ccc(-c2ccc3cc(C(=O)NC4(C(=O)NC5(C#N)CC5)CCC(F)(F)CC4)oc3c2)cc1 [Example 98]
Human cathepsin K
  IC50: 1.02 nM
